The values below come from patent US20240309038A1, “NOVEL GALACTOSIDE INHIBITOR OF GALECTINS” (GALECTO BIOTECH AB, priority 2020, published 2024).

For data set [1], the target named is Gal-3 (Homo sapiens, UniProt P17931). The experiment in a line: Fluorescence anisotropy assay, inhibition of galectin / fluorescein tagged saccharide probe interaction. Format: binding. As for the experimental part: The affinity of Example 1-59 for galectins were determined by a fluorescence anisotropy assay where the compound was used as an inhibitor of the interaction between galectin and a fluorescein tagged saccharide probe as described Sörme, P., Kahl-Knutsson, B., Huflejt, M., Nilsson, U. J., and Leffler H. (2004) Fluorescence polarization as an analytical tool to evaluate galectin-ligand interactions. Anal. Biochem. 334: 36-47, (Sarme et al., 2004)

The nature of data set [2]: CACO-2 A > B permeability. It counts as in vitro ADME. As to conditions: human. The source says:
The compounds of the present invention are novel β-D-galactopyranose compounds that unexpectedly have shown high affinity for galectin-3 and are considered novel potent drug candidates. In addition, it is seen that with these compounds the advantage is that the pyrazole moiety A^1 results in an improved uptake over CACO-2 cells predicting high oral bioavailability after oral administration and this is supported by disclosed ADME data herein. Further compared to compounds where A^1 is a triazole moiety this improvement is significant.

The nature of data set [3]: Human hepatic Clint. It counts as in vitro ADME.

Sequence of Gal-3 (P17931 whole entry, species assumed): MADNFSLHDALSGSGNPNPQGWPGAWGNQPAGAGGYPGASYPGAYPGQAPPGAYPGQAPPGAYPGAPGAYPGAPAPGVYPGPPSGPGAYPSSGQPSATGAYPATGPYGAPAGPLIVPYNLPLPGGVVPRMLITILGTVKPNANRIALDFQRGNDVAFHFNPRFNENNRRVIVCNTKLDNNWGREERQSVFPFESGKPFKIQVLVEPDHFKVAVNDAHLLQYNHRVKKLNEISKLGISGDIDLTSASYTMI

As to `Cc1nc([C@@H]2OC(CO)[C@H](O)C(n3cc(-c4cc(F)c(F)c(F)c4)cn3)C2O)n(-c2ccc3nc(C)sc3c2)n1` (stereo in doubt) [Example 8, 6-{5-{3-Deoxy-3-[4-(3,4,5-trifluorophenyl)-1H-1,2-pyrazol-1-yl]-β-D-galactopyranosyl}-3-methyl-1H-1,2,4-triazol-1-yl}-2-methylbenzothiazole], the equilibrium dissociation constant (Kd) in data set [1] was determined as 22 nM. The molecule further registered a Papp A→B in data set [2] of 17 ×10⁻⁶ cm/s. In data set [3], this molecule returned an intrinsic metabolic clearance (CLint scaled) of 0.3 mL/min/kg.

Take `Cc1nc([C@@H]2OC(CO)[C@H](O)C(n3cc(-c4cc(F)c(Cl)c(F)c4)cn3)C2O)n(-c2cc(Cl)ccc2C(F)(F)F)n1` (stereo in doubt) [Example 5, 1-{5-{3-[4-(4-Chloro-3,5-difluorophenyl)-1H-1,2-pyrazol-1-yl]-3-deoxy-β-D-galactopyranosyl}-3-methyl-1H-1,2,4-triazol-1-yl}-5-chloro-2-(trifluoromethyl)benzene]: binding in data set [1] was characterised by a dissociation constant (Kd) of 6 nM. The molecule further had an apical-to-basolateral permeability (Papp A→B) in data set [2] of 18 ×10⁻⁶ cm/s. The CLint scaled in data set [3] was 0.4 mL/min/kg.

In turn, `Cc1nc([C@@H]2OC(CO)[C@H](O)C(n3cc(-c4cc(F)c(Cl)c(F)c4)cn3)C2O)n(-c2ccc3nc(C)sc3c2)n1` (stereo in doubt) [Example 9, 6-{5-{3-[4-(4-Chloro-3,5-difluorophenyl)-1H-1,2-pyrazol-1-yl]-3-deoxy-β-D-galactopyranosyl}-3-methyl-1H-1,2,4-triazol-1-yl}-2-methylbenzothiazole] came in with a Kd in data set [1] of 12 nM. The same molecule returned a Papp A→B in data set [2] of 20 ×10⁻⁶ cm/s. For the same molecule, the CLint scaled in data set [3] was determined as 0.6 mL/min/kg.

In turn, `Cc1nc([C@@H]2OC(CO)[C@H](O)C(n3cc(-c4cc(F)c(F)c(F)c4)cn3)C2O)n(-c2cc(Cl)cnc2C2CC2)n1` (stereo in doubt) [Example 13, 5-Chloro-3-{5-{3-deoxy-3-[4-(3,4,5-trifluorophenyl)-1H-1,2-pyrazol-1-yl]-β-D-galactopyranosyl}-3-methyl-1H-1,2,4-triazol-1-yl}-2-cyclopropylpyridine] returned a Kd in data set [1] of 15 nM. The molecule further yielded a Papp A→B in data set [2] of 10 ×10⁻⁶ cm/s. Also, in data set [3], the CLint scaled stood at 0.2 mL/min/kg.

Molecule `Cc1nc([C@@H]2OC(CO)[C@H](O)C(n3cc(-c4cc(F)c(Cl)c(F)c4)cn3)C2O)n(-c2cc(Cl)cnc2C2CC2)n1` (stereo in doubt) [Example 1, 3-{5-{3-[4-(4-Chloro-3,5-difluorophenyl)-1H-1,2-pyrazol-1-yl]-3-deoxy-β-D-galactopyranosyl}-3-methyl-1H-1,2,4-triazol-1-yl}-5-chloro-2-cyclopropylpyridine] returned a Kd in data set [1] of 32 nM. In data set [2], this molecule returned a Papp A→B of 18 ×10⁻⁶ cm/s. The molecule further registered a CLint scaled in data set [3] of 1.3 mL/min/kg.

For `Cc1nc([C@@H]2OC(CO)[C@H](O)C(n3cc(-c4cc(F)c(F)c(F)c4)cn3)C2O)n(-c2cc(Cl)ccc2C#N)n1` (stereo in doubt) [Example 27, 5-Chloro-2-cyano-1-{5-{3-deoxy-3-[4-(3,4,5-trifluorophenyl)-1H-1,2-pyrazol-1-yl]-β-D-galactopyranosyl}-3-methyl-1H-1,2,4-triazol-1-yl}benzene], binding in data set [1] was characterised by a dissociation constant (Kd) of 37 nM.
